Measured values from US6924301B1, “Composition for treating or preventing arrhythmia” (Shionogi & Co., Ltd., priority 1999, dated 2005).

How the values were obtained:
Wistar male rats = experiment: Arrhythmia induced by ischemia-reperfusion (coronary ligation 3 min, 10 min reperfusion) in anesthetized rats; assay type: in vivo, rat; conditions: for ventricular fibrillation / ventricular tachycardia: total duration during 10 min reperfusion, mean±S.D.; for effect on ventricular tachycardia induced by ischemia-reperfusion: summary in words of Tables 11 and 12, vs vehicle
Experimental: The utility of the present invention for treating or preventing arrhythmia was confirmed in a manner similar to that described in Circulation Research 56: 545-548, 1984.
Wistar male rats are used as experimental animals. Anesthesia of animal is induced by administration of 30 mg/kg to 60 mg/kg, preferably 40 mg/kg of pentobarbital sodium (preferably intraperitoneal injection). A catheter for the administration of drugs is placed in the jugular vein. Electrocardiogram (ECG) is recorded from lead II during cardiac ischemia and reperfusion. A thoracotomy is performed under artificial ventilation. Left coronary artery is ligated with silicon tube for 3 to 5 min, preferably 3 min. Reperfusion is performed by cutting snare. Total duration of ventricular tachycardia and ventricular fibrillation during 5 to 30 min, preferably 10 min reperfusion are evaluated. Test compounds are dissolved in solvent containing 10% DMSO, 10% ethanol, 30% polyethylene glycol and 50% distilled water and sodium hydrocarbonate is added to the solution to adjust final concentration to 0 to 1%, preferably 0.5%. Drugs are administrated intravenously in bolus at 15 to 60 min, preferably 30 min before reperfusion followed by 30 to 40 min, preferably 40 min infusion.
Wistar male rats (weight 250-350 g) were used. The compound (C-4) (the compound M-17 described in WO98/33797) and the compound (B-1) shown below were dissolved in solvent containing DMSO:ethanol:polyethylene glycol 300:1% aqueous sodium hydrogen carbonate solution=10:10:30:50 (volume ratio). Anesthesia was induced with intraperitoneal injection of 40 mg/kg of pentobarbital sodium. A catheter for the administration of drugs was placed in the jugular vein. Electrocardiogram (ECG) was recorded from lead II during cardiac ischemia and 10 min reperfusion. Drugs were administrated intravenously in bolus at 30 min before reperfusion followed by 40 min infusion. Solvent containing DMSO:ethanol:polyethylene glycol 300:1% aqueous sodium hydrogen carbonate solution=10:10:30:50 (volume ratio) was administrated as vehicle in a administration experiment. A thoracotomy was performed under artificial ventilation. Left coronary artery was ligated with silicon tube for 3 min. Reperfusion was performed by cutting snare. Total duration of ventricular tachycardia (VT) and ventricular fibrillation (VF) during 10 min reperfusion were evaluated.
Data are expressed as mean±S.D. Statistical analysis was performed with Welch's t-test. A value of P<0.05 was considered significant. Compound (C-4) [drawing 73]

cPLA2 = molecular target: T1, cPLA2 (Homo sapiens, UniProt P47712); experiment: cPLA2 inhibitory activity; assay type: biochemical; conditions: for IC60: 0.25 h, Table 10, same assay
T1 sequence (P47712 1-749): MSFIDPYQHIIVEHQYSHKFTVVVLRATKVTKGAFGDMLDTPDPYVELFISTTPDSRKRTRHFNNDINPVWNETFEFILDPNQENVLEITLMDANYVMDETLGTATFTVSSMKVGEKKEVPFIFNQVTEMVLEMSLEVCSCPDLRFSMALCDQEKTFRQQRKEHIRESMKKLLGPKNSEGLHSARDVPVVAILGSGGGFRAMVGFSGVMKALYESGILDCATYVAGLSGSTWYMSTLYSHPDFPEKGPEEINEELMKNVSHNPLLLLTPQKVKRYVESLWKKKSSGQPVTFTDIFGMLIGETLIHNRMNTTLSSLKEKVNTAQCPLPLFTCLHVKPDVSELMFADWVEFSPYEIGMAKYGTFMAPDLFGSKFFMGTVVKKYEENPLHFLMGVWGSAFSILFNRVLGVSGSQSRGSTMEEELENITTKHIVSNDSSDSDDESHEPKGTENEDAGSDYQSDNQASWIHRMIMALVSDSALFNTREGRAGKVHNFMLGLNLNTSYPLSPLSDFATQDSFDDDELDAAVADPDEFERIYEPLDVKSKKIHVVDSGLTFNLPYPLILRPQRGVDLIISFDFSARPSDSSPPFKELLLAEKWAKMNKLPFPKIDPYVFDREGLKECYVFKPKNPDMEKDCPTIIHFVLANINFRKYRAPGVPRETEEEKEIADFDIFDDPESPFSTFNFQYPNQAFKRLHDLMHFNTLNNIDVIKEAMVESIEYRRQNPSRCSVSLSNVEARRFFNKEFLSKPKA
Experimental: The compounds of the present invention were tested for the cPLA2 inhibitory activity according to the method disclosed in […]. Roberts, […], and J. E. Putnam, J. Biol. Chem., 1991, 266, 5268-5272 as outlined below. […] The reaction mixture includes 50 mM HEPES buffer (pH 7.5), 1 mM calcium chloride, 150 mM sodium chloride, 0.1 mg/ml bovine serum albumin, and 1.7 mM dithiothreitol. To the reaction mixture was added the compound of the present invention and the substrate solution. The reaction was allowed to start by adding an enzyme and continued for 15 min at 37° C. The fatty acids released by the reaction were extracted by the method described in V. P. Dole, and H. Meinertz, J. Biol. Chem., 1960, 235, 2595-2599 and its radiation activity was measured on a liquid scintillation counter. Control was obtained by conducting the experiment in the same manner except that a compound of the present invention was not added.

[1] = Bolus (i.v.) + Infusion (i.v.) 0.001 mg/kg + 0.001 mg/kg/hr
[2] = Bolus (i.v.) + Infusion (i.v.) 0.01 mg/kg + 0.01 mg/kg/hr
[3] = Bolus (i.v.) + Infusion (i.v.) 0.1 mg/kg + 0.1 mg/kg/hr

| SMILES | ventricular fibrillation (Wistar male rats; [1]) [s] | ventricular tachycardia (Wistar male rats; [1]) [s] | ventricular fibrillation (Wistar male rats; [2]) [s] | ventricular tachycardia (Wistar male rats; [2]) [s] | ventricular fibrillation (Wistar male rats; [3]) [s] | ventricular tachycardia (Wistar male rats; [3]) [s] | effect on ventricular tachycardia induced by ischemia-reperfusion (Wistar male rats) | IC50 (cPLA2; 1-palmitoyl-2-[14C]-arachidonoyl-sn-glycero-3-phosphocholine liposomes, 15 min at 37° C.) [pM] | melting point [°C] | IC60 (cPLA2) [pM] |
| --- | --- | --- | --- | --- | --- | --- | --- | --- | --- | --- |
| O=C1NC(=O)/C(=C/c2ccc(C(=O)NC[C@@H]3C[C@@H](SC(c4ccccc4)(c4ccccc4)c4ccccc4)CN3C(=O)c3ccccc3C(=O)c3ccc(F)cc3F)cc2)S1 [Compound B-1] | 44.5 ± 133.3 | 54.8 ± 100.9 | 56.5 ± 169.5 | 31.1 ± 62.3 | 0.0 ± 0.0 | 0.4 ± 0.9 | significantly reduced | 3700 | 158 to 160 | – |
| CC(C)CN(C(c1ccccc1)c1ccccc1)[C@@H]1C[C@@H](CNC(=O)c2ccc(/C=C3\SC(=O)NC3=O)cc2)N(C(=O)c2ccccc2C(=O)c2ccc(F)cc2F)C1 [Compound C-4] | 15.1 ± 41.2 | 28.7 ± 50.3 | 1.6 ± 2.9 | 7.6 ± 9.4 | 0.2 ± 0.4 | 5.1 ± 9.3 | significantly reduced | – | – | – |
| Cc1cc(C)cc(C(SC2CC(CNC(=O)C=Cc3ccc(C=C4SC(=O)NC4=O)cc3)N(C(=O)c3ccccc3C(=O)c3ccc(F)cc3F)C2)(c2ccccc2)c2ccccc2)c1 (stereo not drawn) [Compound B-22] | – | – | – | – | – | – | – | – | – | 370 |
| O=C(C=Cc1ccc(C=C2SC(=O)NC2=O)cc1)NCC1CC(SC(c2ccccc2)(c2ccccc2)c2cccc(F)c2)CN1C(=O)c1ccccc1C(=O)c1ccc(F)cc1F (stereo not drawn) [Compound B-24] | – | – | – | – | – | – | – | – | – | 360 |
